Results published in patent US20250066365A1, “Ribonucleoside Analogues Against -Sars-Cov-2” (priority 2021, published 2025).
Converted amounts (≈) assume the structure as drawn.

What was measured:
[1] = system: SARS-CoV-2 USA_WA1/2020 strain; assay: microbe, parasite or virus in culture; format: cell-based
in vitro [2] = settings: African green monkey
in vitro [3] = settings: African green monkey; remark: listed apart in the source
[4] = system: SARS-CoV-2 USA_WA1/2020 strain; assay: Activity against SARS-CoV-2 in Vero E6 cells (cytopathic effect, visual and neutral red); format: cell-based; settings: read-out: EC50 (mM/mL) USA_WA1/2020 strain
SARS-CoV-2 nsp14 = SARS-CoV-2 nsp14 (Severe acute respiratory syndrome coronavirus 2, UniProt P0DTD1); settings: cited from earlier work
[5] = Severe acute respiratory syndrome coronavirus 2, Vero 76, Neutral red (Cytopathic effect/Toxicity), Vero 76 cells, read-out: EC50 (mg/mL) USA_WA1/2020 strain
[6] = Severe acute respiratory syndrome coronavirus 2, Vero 76, Visual (Cytopathic effect/Toxicity), Vero 76 cells, read-out: EC50 (mg/mL) USA_WA1/2020 strain
[7] = CC50 (mg/mL) Vero 76, Neutral red (Cytopathic effect/Toxicity)
[8] = CC50 (mg/mL) Vero 76, Visual (Cytopathic effect/Toxicity)
[9] = CC50 (mM/mL) Vero E6, Neutral red (Cytopathic effect/Toxicity)
[10] = CC50 (mM/mL) Vero E6, Visual (Cytopathic effect/Toxicity)
[11] = Severe acute respiratory syndrome coronavirus 2, Vero C1008, Neutral red (Cytopathic effect/Toxicity)
[12] = Severe acute respiratory syndrome coronavirus 2, Vero C1008, Visual (Cytopathic effect/Toxicity)

Structure (SMILES)	CC50 (in vitro [3]; [9]) [mM]	CC50 (in vitro [3]; [10]) [mM]	EC50 [4, 11] [mM]	EC50 [4, 12] [mM]	further results
C=Cc1cc([C@@H]2O[C@H](CO)[C@@H](O)[C@H]2O)n2ncnc(N)c12 [Compound 4.2a, 7-Vinyl-4-aza-7,9-dideazaadenosine]					cytotoxicity (in words) (Vero 76 cells): significant cytotoxicity; EC50 [1, 5]: 0.00016 mg/mL (≈ 0.547 µM); EC50 ([1]; Severe acute respiratory syndrome coronavirus 2, Vero 76, Vero 76 cells, read-out: EC50 against SARS-CoV-2): 0.00016 mg/mL (≈ 0.547 µM); EC50 [1, 6]: < 0.0001 mg/mL; activity against SARS-CoV-2 (in words) ([1]; Vero 76 cells): active; CC50 (in vitro [2]; [7]): 4.7 µg/mL (≈ 16.1 µM); CC50 (in vitro [2]; [8]): 3.2 µg/mL (≈ 10.9 µM)
Nc1ncnn2c([C@@H]3O[C@H](CO)[C@@H](O)[C@H]3O)cc(/C=C/c3ccccn3)c12 [Compound 4.2b, 7-((E)-2-(Pyridin-2-yl)vinyl)-4-aza-7,9-dideazaadenosine]					cytotoxicity (in words) (Vero 76 cells): potent cytotoxicity; EC50 [1, 5]: < 0.0001 mg/mL; EC50 [1, 6]: > 0.00032 mg/mL; CC50 (in vitro [2]; [7]): 0.32 µg/mL (≈ 0.866 µM); CC50 (in vitro [2]; [8]): 0.32 µg/mL (≈ 0.866 µM)
Cc1ccc(/C=C/c2cc([C@@H]3O[C@H](CO)[C@@H](O)[C@H]3O)n3ncnc(N)c23)cc1 [Compound 4.2c, 7-((E)-4-Methylstyryl)-4-aza-7,9-dideazaadnosine]					EC50 against SARS-CoV-2 [1]: 0.3 µg/mL (≈ 0.784 µM); activity against SARS-CoV-2 (in words) ([1]; Vero 76 cells): potent antiviral activity
Nc1ncnn2c([C@@H]3O[C@H](CO)[C@@H](O)[C@H]3O)cc(/C=C/c3ccc(F)cc3)c12 [Compound 4.2d, 7-((E)-4-Fluorostyryl)-4-aza-7,9-dideazaadenosine]					EC50 [1, 5]: > 0.0058 mg/mL; EC50 [1, 6]: > 0.0032 mg/mL; CC50 (in vitro [2]; [7]): 5.8 µg/mL (≈ 15 µM); CC50 (in vitro [2]; [8]): 3.2 µg/mL (≈ 8.28 µM)
Nc1ncnn2c([C@@H]3O[C@H](CO)[C@@H](O)[C@H]3O)cc(/C=C/c3ccc(C(F)(F)F)cc3)c12 [Compound 4.2e, 7-((E)-4-(Trifluoromethyl)styryl)-4-aza-7,9-dideazaadenosine]					EC50 [1, 5]: > 0.032 mg/mL; EC50 [1, 6]: > 0.032 mg/mL; activity against SARS-CoV-2 (in words) ([1]; Vero 76 cells): inactive; CC50 (in vitro [2]; [7]): 32 µg/mL (≈ 73.3 µM); CC50 (in vitro [2]; [8]): 32 µg/mL (≈ 73.3 µM)
Nc1ncnn2c([C@@H]3O[C@H](CO)[C@@H](O)[C@H]3O)cc(/C=C/c3ccc(Cl)cc3)c12 [Compound 4.2f, 7-((E)-4-Chlorostyryl)-4-aza-7,9-dideazaadenosine]	0.032	0.032	> 0.032	> 0.032	
Nc1ncnn2c([C@@H]3O[C@H](CO)[C@@H](O)[C@H]3O)cc(/C=C/c3cccc(F)c3)c12 [Compound 4.2g, 7-((E)-3-Fluorostyryl)-4-aza-7,9-dideazaadenosine]	0.032	0.032	> 0.032	> 0.032	
Nc1ncnn2c([C@@H]3O[C@H](CO)[C@@H](O)[C@H]3O)cc(/C=C/C3CC3)c12 [Compound 4.2h, 7-((E)-2-Cyclopropylvinyl)-4-aza-7,9-dideazaadenosine]	> 0.1	> 0.1	> 0.1	> 0.1	
Nc1ncnn2c([C@@H]3O[C@H](CO)[C@@H](O)[C@H]3O)cc(/C=C/C3CCCC3)c12 [Compound 4.2i, 7-((E)-2-Cyclopentylvinyl)-4-aza-7,9-dideazaadenosine]	> 0.1	> 0.1	> 0.1	> 0.1	
Nc1ncnn2c([C@@H]3O[C@H](CO)[C@@H](O)[C@H]3O)cc(/C=C/c3cccs3)c12 [Compound 4.2j, 7-((E)-2-(Thiophen-2-yl)vinyl)-4-aza-7,9-dideazaadenosine]	0.032	0.028	> 0.032	> 0.028	
Nc1ncnn2c([C@@H]3O[C@H](CO)[C@@H](O)[C@H]3O)cc(/C=C/c3ccsc3)c12 [Compound 4.2k, 7-((E)-2-(Thiophen-3-yl)vinyl)-4-aza-7,9-dideazaadenosine]	0.0031	0.0032	> 0.0031	> 0.0032	
Nc1ncnn2c([C@@H]3O[C@H](CO)[C@@H](O)[C@H]3O)cc(/C=C/C3CCCCC3)c12 [Compound 4.2l, 7-((E)-2-Cyclohexylvinyl)-4-aza-7,9-dideazaadenosine]	> 0.1	> 0.1	> 0.1	> 0.1	
CCC/C=C/c1cc([C@@H]2O[C@H](CO)[C@@H](O)[C@H]2O)n2ncnc(N)c12 [Compound 4.2m, 7-((E)-pent-1-en-1-yl)-4-aza-7,9-dideazaadenosine]	> 0.1	> 0.1	> 0.1	> 0.1	
Nc1ncnc2c1ncn2[C@@H]1O[C@H](CSCCNC(=O)NCCc2ccccc2)[C@@H](O)[C@H]1O [DS0464]					concentration range of nsp14 inhibition (in words) (SARS-CoV-2 nsp14): low-micromolar
N#Cc1cn([C@@H]2O[C@H](CSCC[C@H](N)C(=O)O)C(O)[C@@H]2O)c2ncnc(N)c12 (stereo partly drawn) [SS148]					concentration range of nsp14 inhibition (in words) (SARS-CoV-2 nsp14): submicromolar to nanomolar
